According to publication PMC10855341, “Inhibition of Apoptosis in a Model of Ischemic Stroke Leads to Enhanced Cell Survival, Endogenous Neural Precursor Cell Activation and Improved Functional Outcomes” (International Journal of Molecular Sciences, 2024):

Tested on: neural precursor cells (NPCs) from SVZ neurospheres
Test: In vitro NPC cell viability with cisplatin (DAPI+ counts)
Format: cell-based, adult mice (C57BL/6)
Settings: 20 µM cisplatin alone, 8 h; mean ± SEM, n = 3 independent experiments
Protocol: NSC neurospheres were obtained from control […] C57BL/6 periventricular dissections, as described above. Neurospheres were collected and mechanically disassociated into single cells and plated in 96-well plates coated with 4% Matrigel (Corning 354234, Corning, NY, USA) at a density of 20,000 cells per well in 100 µL of SFM with […] epidermal growth factor (GIBCO, PMG8041, Waltham, MA, USA), […] basic fibroblast growth factor (GIBCO, PHG0266, Waltham, MA, USA) and 2 µg/mL heparin (Sigma-Aldrich, H3149, St. Louis, MO, USA) (referred to as growth factors). One day later, the media was removed and replaced with fresh SFM, growth factors, 20 µM cisplatin (Sigma-Aldrich, P4394, St. Louis, MO, USA) and 10 µM NWL283 (New World Laboratories, Laval, QC, Canada) in sterile PBS. The vehicle group received media containing SFM, growth factors and PBS.
To assess cell viability at 2 h and 8 h, cells were fixed with 4% PFA for 15 min and washed three times for 5 min in PBS. Cells were incubated for 10 min with 1:10,000 DAPI (Invitrogen, D130, Waltham, MA, USA), then washed three times for 5 min in PBS and imaged on an Axio Observer Zeiss microscope. DAPI cells were counted using ImageJ (https://imagej.net/ij/) analyze particle detection and then manually confirmed. Data were collected from three independent experiments.

N.N.[Cl][Pt][Cl] [cisplatin]
cell survival, DAPI+ cells: 49.09 ± 7.28 DAPI+ cells
